In patent US20100298141A1, “SUBSTITUTED PYRIDINE N-OXIDE HERBICIDES” (E. I. DU PONT DE NEMOURS AND COMPANY, priority 2007, published 2010):

What was measured:
velvetleaf [1] = assay: Test C pre-/postemergence test; format: in vivo, Abutilon theophrasti
Method in brief: (§1)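 Compounds in a non-phytotoxic solvent with surfactant applied preemergence to seeded pots and, at the same time, postemergence to plants 2–18 cm tall (1- to 4-leaf stage). Paddy tests: pots flooded to 3 cm, compound applied into the water, depth held throughout.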

Surinam grass = assay: Test C pre-/postemergence test; format: in vivo, Brachiaria decumbens
Method in brief: as §1

cocklebur = assay: Test C pre-/postemergence test; format: in vivo, Xanthium strumarium
Method in brief: as §1

barnyardgrass = assay: Test A pre-/postemergence greenhouse test; format: in vivo, Echinochloa crus-galli; conditions: for Barnyardgrass plant response rating: 0 to 100 scale
Method in brief: (§2)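 Pots of loam–sand soil sown with the test species are sprayed preemergence on the soil surface; emerged seedlings (1–2 leaves, 2–10 cm) are sprayed postemergence at the same time. The vehicle is a non-phytotoxic solvent mixture with surfactant. Injury is scored visually after ~10 d in greenhouse.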

eastern black nightshade = assay: Test C pre-/postemergence test; format: in vivo, Solanum ptycanthum
Method in brief: as §1

downy brome = assay: Test C pre-/postemergence test; format: in vivo, Bromus tectorum
Method in brief: as §1

lambsquarters = assay: Test C pre-/postemergence test; format: in vivo, Chenopodium album
Method in brief: as §1

wild oat = assay: Test C pre-/postemergence test; format: in vivo, Avena fatua
Method in brief: as §1

crabgrass = assay: Test C pre-/postemergence test; format: in vivo, Digitaria sanguinalis
Method in brief: as §1

redroot pigweed = assay: Test A pre-/postemergence greenhouse test; format: in vivo, Amaranthus retroflexus; conditions: for Pigweed plant response rating: 0 to 100 scale
Method in brief: as §2

velvetleaf [2] = assay: Test A pre-/postemergence greenhouse test; format: in vivo, Abutilon theophrasti; conditions: for Velvetleaf plant response rating: 0 to 100 scale
Method in brief: as §2

duck salad = assay: Test C flooded paddy test; format: in vivo, Heteranthera limosa; conditions: Flood
Method in brief: (§3)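 Test compounds are applied straight into paddy water held 3 cm above the soil surface, with that flood maintained for the whole test. After 13 to 15 days in the greenhouse, each species is scored visually relative to controls.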

common ragweed = assay: Test C pre-/postemergence test; format: in vivo, Ambrosia elation
Method in brief: as §1

green foxtail = assay: Test C pre-/postemergence test; format: in vivo, Setaria viridis
Method in brief: as §1

johnsongrass = assay: Test C pre-/postemergence test; format: in vivo, Sorghum halepense
Method in brief: as §1

rice = assay: Test C flooded paddy test; format: in vivo, Oryza sativa; conditions: Flood
Method in brief: as §3

giant foxtail = assay: Test C pre-/postemergence test; format: in vivo, Setaria faberii
Method in brief: as §1

kochia = assay: Test C pre-/postemergence test; format: in vivo, Kochia scoparia
Method in brief: as §1

[3] = 62 g ai/ha, Preemergence, scale 0 to 100
[4] = 125 g ai/ha, preemergence, scale 0 (no effect) to 100 (complete control)
[5] = Preemergence, 31 g ai/ha, scale 0 to 100 (0 no effect, 100 complete control)
[6] = preemergence, 250 g ai/ha, scale 0 (no effect) to 100 (complete control)
[7] = Postemergence, 125 g ai/ha, 0 is no effect, 100 is complete control
[8] = Postemergence, 500 g ai/ha, 0 is no effect, 100 is complete control
[9] = Preemergence, 125 g ai/ha, 0 no effect, 100 complete control
[10] = Preemergence, 500 g ai/ha, 0 to 100 scale where 0 is no effect and 100 is complete control
[11] = 31 g ai/ha, scale 0 to 100 (0 no effect, 100 complete control)
[12] = 62 g ai/ha, scale 0 to 100, 0 no effect, 100 complete control, 13 to 15 days
[13] = 125 g ai/ha, scale 0 to 100, 0 no effect, 100 complete control, 13 to 15 days
[14] = 250 g ai/ha, scale 0 to 100, 0 no effect, 100 complete control, 13 to 15 days

`Cn1nc(C(F)(F)F)c(C[S+]([O-])c2cc(F)cc[n+]2[O-])c1Cl` (racemic) [Compound 42] was tested, and the “Velvetleaf plant response rating” value (velvetleaf [1]; [3]) was 60, the “Velvetleaf plant response rating” value (velvetleaf [1]; [4]) was 70 and the “Plant response rating, Velvetleaf” value (velvetleaf [1]; [5]) was 0. For the same compound, the “Velvetleaf plant response rating” value (velvetleaf [1]; [6]) was 100, the “Surinam Grass plant response rating” value (Surinam grass; [3]) was 80 and the “Surinam Grass plant response rating” value (Surinam grass; [4]) was 85. The “Plant response rating, Surinam Grass” value (Surinam grass; [5]) was 60, the “Surinam Grass plant response rating” value (Surinam grass; [6]) was 100 and the “Cocklebur plant response rating” value (cocklebur; [3]) was 0. For the same compound, the “Cocklebur plant response rating” value (cocklebur; [4]) was 0, the “Plant response rating, Cocklebur” value (cocklebur; [5]) was 0 and the “Cocklebur plant response rating” value (cocklebur; [6]) was 50. For the same compound, the “Barnyardgrass plant response rating” value (barnyardgrass; [7]) was 70, the “Barnyardgrass plant response rating” value (barnyardgrass; [8]) was 80 and the “Barnyardgrass plant response rating” value (barnyardgrass; [9]) was 80. The “Plant response rating, Barnyardgrass” value (barnyardgrass; [10]) was 100, the “Nightshade plant response rating” value (eastern black nightshade; [3]) was 80 and the “Nightshade plant response rating” value (eastern black nightshade; [4]) was 100. For the same compound, the “Plant response rating, Nightshade” value (eastern black nightshade; [5]) was 80, the “Nightshade plant response rating” value (eastern black nightshade; [6]) was 100 and the “Bromegrass, Downy plant response rating” value (downy brome; [3]) was 15. For the same compound, the “Bromegrass, Downy plant response rating” value (downy brome; [4]) was 45, the “Plant response rating, Bromegrass, Downy” value (downy brome; [5]) was 10 and the “Bromegrass, Downy plant response rating” value (downy brome; [6]) was 70. The “Lambsquarters plant response rating” value (lambsquarters; [3]) was 100, the “Lambsquarters plant response rating” value (lambsquarters; [4]) was 100 and the “Plant response rating, Lambsquarters” value (lambsquarters; [5]) was 80. For the same compound, the “Lambsquarters plant response rating” value (lambsquarters; [6]) was 100, the “Oat, Wild plant response rating” value (wild oat; [3]) was 5 and the “Oat, Wild plant response rating” value (wild oat; [4]) was 50. The “Plant response rating, Oat, Wild” value (wild oat; [5]) was 0, the “Oat, Wild plant response rating” value (wild oat; [6]) was 90 and the “Crabgrass, Large plant response rating” value (crabgrass; [3]) was 100. For the same compound, the “Crabgrass, Large plant response rating” value (crabgrass; [4]) was 100, the “Plant response rating, Crabgrass, Large” value (crabgrass; [5]) was 95 and the “Crabgrass, Large plant response rating” value (crabgrass; [6]) was 100. The “Pigweed plant response rating” value (redroot pigweed; [7]) was 60, the “Pigweed plant response rating” value (redroot pigweed; [8]) was 70 and the “Pigweed plant response rating” value (redroot pigweed; [9]) was 100. For the same compound, the “Plant response rating, Pigweed” value (redroot pigweed; [10]) was 100, the “Velvetleaf plant response rating” value (velvetleaf [2]; [7]) was 0 and the “Velvetleaf plant response rating” value (velvetleaf [2]; [8]) was 60. The “Velvetleaf plant response rating” value (velvetleaf [2]; [9]) was 10, the “Plant response rating, Velvetleaf” value (velvetleaf [2]; [10]) was 80 and the “Plant response rating, Ducksalad” value (duck salad; [11]) was 70. The “Plant response rating, Ducksalad” value (duck salad; [12]) was 85, the “Plant response rating, Ducksalad” value (duck salad; [13]) was 85 and the “Plant response rating, Ducksalad” value (duck salad; [14]) was 90. The “Ragweed plant response rating” value (common ragweed; [3]) was 70, the “Ragweed plant response rating” value (common ragweed; [4]) was 90 and the “Plant response rating, Ragweed” value (common ragweed; [5]) was 5. The “Ragweed plant response rating” value (common ragweed; [6]) was 90, the “Foxtail, Green plant response rating” value (green foxtail; [3]) was 100 and the “Foxtail, Green plant response rating” value (green foxtail; [4]) was 100. The “Plant response rating, Foxtail, Green” value (green foxtail; [5]) was 98, the “Foxtail, Green plant response rating” value (green foxtail; [6]) was 100 and the “Johnsongrass plant response rating” value (johnsongrass; [3]) was 98. The “Johnsongrass plant response rating” value (johnsongrass; [4]) was 100, the “Plant response rating, Johnsongrass” value (johnsongrass; [5]) was 55 and the “Johnsongrass plant response rating” value (johnsongrass; [6]) was 100. For the same compound, the “Plant response rating, Rice” value (rice; [11]) was 0, the “Plant response rating, Rice” value (rice; [12]) was 15 and the “Plant response rating, Rice” value (rice; [13]) was 25. The “Plant response rating, Rice” value (rice; [14]) was 70, the “Foxtail, Giant plant response rating” value (giant foxtail; [3]) was 100 and the “Foxtail, Giant plant response rating” value (giant foxtail; [4]) was 100. The “Plant response rating, Foxtail, Giant” value (giant foxtail; [5]) was 98, the “Foxtail, Giant plant response rating” value (giant foxtail; [6]) was 100 and the “Kochia plant response rating” value (kochia; [3]) was 100. For the same compound, the “Kochia plant response rating” value (kochia; [4]) was 100, the “Plant response rating, Kochia” value (kochia; [5]) was 100 and the “Kochia plant response rating” value (kochia; [6]) was 100.
